Reference: ChEMBL document CHEMBL1138902, “New 3-alkylamino-4H-thieno-1,2,4-thiadiazine 1,1-dioxide derivatives activate ATP-sensitive potassium channels of pancreatic beta cells” (J Med Chem, 2006)

Legend:
[1] = test system: Beta-TC6; test: Inhibition of glucose-stimulated insulin release in betaTC6 cells; type: functional, cell-based; settings: Mus musculus
[2] = test system: Beta-TC6; test: Inhibition of glucose-stimulated insulin release in beta-TC6 cells at 10 uM; type: functional, Mus musculus
[3] = test system: Beta-TC3; test: Repolarization of beta-TC3 cells; type: functional, cell-based, Mus musculus
[4] = molecular target: T1, Sulfonylurea receptor 1, Kir6.2 (Homo sapiens, UniProt Q09428+Q14654); test: Displacement of [3H]glibenclamide from human Kir6.2/SUR1 expressed in HEK293 cells in presence of 2 mM ATP; type: cell-based
[5] = Clearance in Sprague-Dawley rat at 2.3 mg/kg, po or 1.24 mg/kg, iv; type: ADME, organism-based; settings: in vivo
[6] = test system: Rattus norvegicus; test: Reduction in plasma insulin level in anaesthetized Sprague-Dawley rat at 3 mg/kg, iv; type: functional
[7] = molecular target: T1, Sulfonylurea receptor 1, Kir6.2; test: Repolarization of HEK293 cells expressing Kir6.2/SUR1 KATP channels; type: functional, cell-based
[8] = Tmax in Sprague-Dawley rat at 2.3 mg/kg, po or 1.24 mg/kg, iv; type: ADME, organism-based; settings: in vivo
[9] = test system: Rattus norvegicus; test: Reduction in plasma insulin level in po dosed Zucker obese rat after 2 hrs; type: functional; settings: read-out: ID50 (the source's name)
[10] = Oral bioavailability in Sprague-Dawley rat at 2.3 mg/kg, po; type: ADME, organism-based; settings: in vivo
[11] = organism: Rattus norvegicus; test: Inhibition of glucose-stimulated insulin release in Wistar rat islets; type: functional, organism-based
[12] = Cmax in Sprague-Dawley rat at 2.3 mg/kg, po; type: ADME, organism-based; design: dose 2.3 mg/kg, route oral; settings: in vivo
[13] = organism: Rattus norvegicus; test: Relaxation of precontracted Wistar rat aorta rings; type: functional, organism-based; settings: for EC50: Rattus norvegicus, Aorta
[14] = molecular target: T1, Sulfonylurea receptor 1, Kir6.2; test: Displacement of [3H]glibenclamide from human Kir6.2/SUR1 expressed in HEK293 cells; type: cell-based
[15] = Half life in Sprague-Dawley rat at 2.3 mg/kg, po; type: ADME, organism-based; design: dose 2.3 mg/kg, route oral; settings: in vivo
[16] = Plasma concentration in Sprague-Dawley rat after 30 mins; type: ADME, organism-based
[17] = Half life in Sprague-Dawley rat at 2.48 mg/kg, po; type: ADME, organism-based; design: dose 2.48 mg/kg, route oral; settings: in vivo
[18] = Tmax in Sprague-Dawley rat at 2.48 mg/kg, po or 1.08 mg/kg, iv; type: ADME, organism-based; settings: in vivo
[19] = Oral bioavailability in Sprague-Dawley rat at 2.48 mg/kg, po; type: ADME, organism-based; settings: in vivo
[20] = Clearance in Sprague-Dawley rat at 2.48 mg/kg, po or 1.08 mg/kg, iv; type: ADME, organism-based; settings: in vivo
[21] = Cmax in Sprague-Dawley rat at 2.48 mg/kg, po; type: ADME, organism-based; design: dose 2.48 mg/kg, route oral; settings: in vivo
[22] = Oral bioavailability in Sprague-Dawley rat at 2.19 mg/kg, po; type: ADME, organism-based; settings: in vivo
[23] = Cmax in Sprague-Dawley rat at 2.19 mg/kg, po; type: ADME, organism-based; design: dose 2.19 mg/kg, route oral; settings: in vivo
[24] = Tmax in Sprague-Dawley rat at 2.19 mg/kg, po or 1.22 mg/kg, iv; type: ADME, organism-based; settings: in vivo
[25] = Half life in Sprague-Dawley rat at 2.19 mg/kg, po; type: ADME, organism-based; design: dose 2.19 mg/kg, route oral; settings: in vivo
[26] = Clearance in Sprague-Dawley rat at 2.19 mg/kg, po or 1.22 mg/kg, iv; type: ADME, organism-based; settings: in vivo
[27] = Oral bioavailability in Sprague-Dawley rat at 1.89 mg/kg, po; type: ADME, organism-based; settings: in vivo
[28] = Clearance in Sprague-Dawley rat at 1.89 mg/kg, po or 0.89 mg/kg, iv; type: ADME, organism-based; settings: in vivo
[29] = Tmax in Sprague-Dawley rat at 1.89 mg/kg, po or 0.89 mg/kg, iv; type: ADME, organism-based; settings: in vivo
[30] = Half life in Sprague-Dawley rat at 1.89 mg/kg, po; type: ADME, organism-based; design: dose 1.89 mg/kg, route oral; settings: in vivo
[31] = Cmax in Sprague-Dawley rat at 1.89 mg/kg, po; type: ADME, organism-based; design: dose 1.89 mg/kg, route oral; settings: in vivo
[32] = Half life in Sprague-Dawley rat at 2 mg/kg, po; type: ADME, organism-based; design: dose 2 mg/kg, route oral; settings: in vivo
[33] = test system: Rattus norvegicus; test: Oral bioavailability in Sprague-Dawley rat at 2 mg/kg, po; type: ADME, organism-based; settings: in vivo
[34] = Cmax in Sprague-Dawley rat at 2 mg/kg, po; type: ADME, organism-based; design: dose 2 mg/kg, route oral; settings: in vivo
[35] = Clearance in Sprague-Dawley rat at 2 mg/kg, po or 0.5 mg/kg, iv; type: ADME, organism-based; settings: in vivo
[36] = Tmax in Sprague-Dawley rat at 2 mg/kg, po or 0.5 mg/kg, iv; type: ADME, organism-based; settings: in vivo
[37] = Mus musculus, Beta-TC3, read-out: EC50

T1 sequence (Q14654 whole entry): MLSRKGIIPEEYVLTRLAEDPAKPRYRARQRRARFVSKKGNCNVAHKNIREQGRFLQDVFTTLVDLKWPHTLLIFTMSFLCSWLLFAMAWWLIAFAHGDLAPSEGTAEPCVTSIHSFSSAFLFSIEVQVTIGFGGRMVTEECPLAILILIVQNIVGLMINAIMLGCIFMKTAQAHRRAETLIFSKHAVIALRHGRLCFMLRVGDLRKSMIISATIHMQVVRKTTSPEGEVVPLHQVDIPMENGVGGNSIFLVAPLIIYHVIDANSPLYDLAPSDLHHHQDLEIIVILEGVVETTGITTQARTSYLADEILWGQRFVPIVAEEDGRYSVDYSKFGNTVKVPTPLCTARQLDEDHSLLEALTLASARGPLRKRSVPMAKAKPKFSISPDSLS
T1 sequence (Q09428 whole entry): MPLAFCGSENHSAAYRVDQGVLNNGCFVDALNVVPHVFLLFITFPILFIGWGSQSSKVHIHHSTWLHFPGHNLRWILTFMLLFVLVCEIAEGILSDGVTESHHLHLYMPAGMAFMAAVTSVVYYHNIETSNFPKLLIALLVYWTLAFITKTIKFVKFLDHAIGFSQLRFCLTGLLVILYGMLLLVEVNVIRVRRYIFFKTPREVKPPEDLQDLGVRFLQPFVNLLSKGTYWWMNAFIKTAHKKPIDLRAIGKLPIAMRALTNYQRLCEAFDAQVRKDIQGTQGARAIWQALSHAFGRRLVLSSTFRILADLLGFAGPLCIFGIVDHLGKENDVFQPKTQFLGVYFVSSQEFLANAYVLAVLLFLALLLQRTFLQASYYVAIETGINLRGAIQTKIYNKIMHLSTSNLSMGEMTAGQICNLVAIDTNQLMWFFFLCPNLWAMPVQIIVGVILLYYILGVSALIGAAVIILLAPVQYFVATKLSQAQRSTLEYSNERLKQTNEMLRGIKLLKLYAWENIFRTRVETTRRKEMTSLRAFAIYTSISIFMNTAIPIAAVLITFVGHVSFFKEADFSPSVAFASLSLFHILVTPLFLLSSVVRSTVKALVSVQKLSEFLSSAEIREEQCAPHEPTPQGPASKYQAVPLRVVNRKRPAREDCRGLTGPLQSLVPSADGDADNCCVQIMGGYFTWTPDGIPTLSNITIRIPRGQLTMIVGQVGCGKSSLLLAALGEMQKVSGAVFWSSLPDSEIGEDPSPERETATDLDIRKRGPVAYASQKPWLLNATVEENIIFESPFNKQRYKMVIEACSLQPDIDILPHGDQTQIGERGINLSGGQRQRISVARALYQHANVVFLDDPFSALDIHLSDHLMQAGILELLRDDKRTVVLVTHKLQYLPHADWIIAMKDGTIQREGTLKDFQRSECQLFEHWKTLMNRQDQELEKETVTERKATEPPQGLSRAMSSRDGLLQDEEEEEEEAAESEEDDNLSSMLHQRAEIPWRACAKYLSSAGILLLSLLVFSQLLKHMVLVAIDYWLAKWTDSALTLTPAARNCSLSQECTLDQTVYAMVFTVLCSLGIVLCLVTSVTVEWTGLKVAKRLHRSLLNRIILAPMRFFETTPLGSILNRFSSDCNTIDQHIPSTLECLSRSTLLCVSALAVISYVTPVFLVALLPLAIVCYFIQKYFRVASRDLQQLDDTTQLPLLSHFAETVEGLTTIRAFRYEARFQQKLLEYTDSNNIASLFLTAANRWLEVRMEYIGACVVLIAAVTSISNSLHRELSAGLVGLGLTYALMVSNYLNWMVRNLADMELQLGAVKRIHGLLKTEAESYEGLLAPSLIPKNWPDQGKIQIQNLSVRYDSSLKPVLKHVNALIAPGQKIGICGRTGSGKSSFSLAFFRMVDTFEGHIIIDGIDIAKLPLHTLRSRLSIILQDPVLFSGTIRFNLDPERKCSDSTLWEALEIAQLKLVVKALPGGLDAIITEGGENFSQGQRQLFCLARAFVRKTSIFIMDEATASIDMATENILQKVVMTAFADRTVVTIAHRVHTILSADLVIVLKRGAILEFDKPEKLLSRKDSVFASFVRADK

EC50 [1]	EC50 [13]	EC50 [3, 37]	Compound	Efficacy [2]	other results
740 nM			CN1C(NC2(C)CC2)=NS(=O)(=O)c2sc(Cl)cc21	23%	EC50 ([3]; beta-tc3): Not Active
240 nM	103000 nM	130 nM	CC(C)(NC1=NS(=O)(=O)c2sc(Cl)cc2N1)c1ccccc1	76%	IC50 [4]: 81 nM; clearance [5]: 7.3 mL/min/kg; inhibition in vivo at 3 mg/kg [6]: 86%; EC50 [7]: 180 nM; Tmax [8]: 0.25 h; ED50 [9]: 4 mg/kg; bioavailability [10]: 82%; EC50 [11]: 40 nM; Cmax [12]: 2590 ng/mL; IC50 [14]: 360000 nM; half-life [15]: 0.867 h
2670 nM	183000 nM	480 nM	O=S1(=O)NC(NC2(c3ccccc3)CC2)=Nc2cc(Cl)sc21	66%	EC50 [7]: 810 nM; EC50 [11]: 110 nM
13400 nM	13900 nM	160 nM	O=S1(=O)N=C(NC2(c3cccc(Cl)c3)CCC2)Nc2cc(Cl)sc21	40%	
2070 nM	95000 nM	2000 nM	C[C@H](NC1=NS(=O)(=O)c2sc(Cl)cc2N1)c1ccc(Br)cc1	69%	
20 nM		20 nM	CC1(NC2=NS(=O)(=O)c3sc(Cl)cc3N2)CCC1	92%	
190 nM	6870 nM	> 30000 nM	CC1(NC2=NS(=O)(=O)c3sccc3N2)CC1	19%	Efficacy [13]: 18%
150 nM	173000 nM	3100 nM	O=S1(=O)N=C(NCC(F)(F)F)Nc2cc(Cl)sc21	36%	
19800 nM	> 300000 nM	5000 nM	CC(C)NC1=NS(=O)(=O)c2cc(Cl)sc2N1	16%	
990 nM	24000 nM	500 nM	C[C@@H](NC1=NS(=O)(=O)c2sc(Cl)cc2N1)c1ccccc1	68%	
3570 nM	2890 nM	500 nM	COc1ccc(C2(NC3=NS(=O)(=O)c4sc(Cl)cc4N3)CC2)cc1	69%	
310 nM	133000 nM	140 nM	CC1(NC2=NS(=O)(=O)c3sc(Br)cc3N2)CC1	81%	inhibition in vivo at 3 mg/kg [6]: 97%; concentration at 0.5 h [16]: 340 ng/mL; EC50 [7]: 160 nM; half-life [17]: 2.6 h; ED50 [9]: < 3 mg/kg; EC50 [11]: 20 nM; Tmax [18]: 1.5 h; bioavailability [19]: 96%; clearance [20]: 15 mL/min/kg; Cmax [21]: 885 ng/mL
			CC1(NC2=NS(=O)(=O)c3cc(Cl)sc3N2)CC1		EC50 ([3]; beta-tc3): Not Active
6110 nM	133000 nM	3600 nM	O=S1(=O)NC(NCc2ccccc2)=Nc2cc(Cl)sc21	30%	Emax ([3]; Mus musculus, Beta-TC3): < 60%
280 nM			CC1(NC2=NS(=O)(=O)c3scc(Cl)c3N2)CC1	2%	EC50 ([3]; beta-tc3): Not Active
1400 nM	40000 nM	400 nM	O=S1(=O)N=C(NC2(C(F)(F)F)CC2)Nc2cc(Cl)sc21	76%	inhibition in vivo at 3 mg/kg [6]: 90%; bioavailability [22]: 70%; Cmax [23]: 533 ng/mL; EC50 [7]: 530 nM; Tmax [24]: 0.5 h; ED50 [9]: 8 mg/kg; half-life [25]: 5.5 h; clearance [26]: 5 mL/min/kg; EC50 [11]: 160 nM
13000 nM	34900 nM	3500 nM	C[C@H](NC1=NS(=O)(=O)c2sc(Cl)cc2N1)c1ccccc1	28%	Emax ([3]; Mus musculus, Beta-TC3): < 60%
250 nM			CC1(NC2=NS(=O)(=O)c3sc(Cl)cc3N2)CC1 [TIFENAZOXIDE]	73%	inhibition in vivo at 3 mg/kg [6]: 85%; ED50 [9]: 1.5 mg/kg; bioavailability [27]: 103%; clearance [28]: 7.02 mL/min/kg; Tmax [29]: 0.5 h; half-life [30]: 4.17 h; Cmax [31]: 1230 ng/mL
23000 nM		13700 nM	CC1=Nc2ccc(Cl)cc2S(=O)(=O)N1 [DIAZOXIDE]	25%	half-life [32]: 1.32 h; inhibition in vivo at 3 mg/kg [6]: 53%; ED50 [9]: > 30 mg/kg; F [33]: 154%; EC50 [11]: 20300 nM; Cmax [34]: 1450 ng/mL; clearance [35]: 8 mL/min/kg; Tmax [36]: 1 h
6700 nM			CC1(NC2=NS(=O)(=O)c3scc(Br)c3N2)CC1	5%	EC50 ([3]; beta-tc3): Not Active
